The text below walks through data of patent publication US20090203725A1, “Androgen Receptor Modulator Compounds and Methods” (priority 2005, published 2009).

The structures appear in SMILES notation. Some results are limits rather than exact numbers.

The target of the first assay is T1, hAR (Homo sapiens, UniProt P10275).
T1 construct: expressed in transfected cells; host or cells: COS-1 cells transiently transfected with pRShAR, pRS-β-Gal and pGEM
T1 sequence (P10275 1-920): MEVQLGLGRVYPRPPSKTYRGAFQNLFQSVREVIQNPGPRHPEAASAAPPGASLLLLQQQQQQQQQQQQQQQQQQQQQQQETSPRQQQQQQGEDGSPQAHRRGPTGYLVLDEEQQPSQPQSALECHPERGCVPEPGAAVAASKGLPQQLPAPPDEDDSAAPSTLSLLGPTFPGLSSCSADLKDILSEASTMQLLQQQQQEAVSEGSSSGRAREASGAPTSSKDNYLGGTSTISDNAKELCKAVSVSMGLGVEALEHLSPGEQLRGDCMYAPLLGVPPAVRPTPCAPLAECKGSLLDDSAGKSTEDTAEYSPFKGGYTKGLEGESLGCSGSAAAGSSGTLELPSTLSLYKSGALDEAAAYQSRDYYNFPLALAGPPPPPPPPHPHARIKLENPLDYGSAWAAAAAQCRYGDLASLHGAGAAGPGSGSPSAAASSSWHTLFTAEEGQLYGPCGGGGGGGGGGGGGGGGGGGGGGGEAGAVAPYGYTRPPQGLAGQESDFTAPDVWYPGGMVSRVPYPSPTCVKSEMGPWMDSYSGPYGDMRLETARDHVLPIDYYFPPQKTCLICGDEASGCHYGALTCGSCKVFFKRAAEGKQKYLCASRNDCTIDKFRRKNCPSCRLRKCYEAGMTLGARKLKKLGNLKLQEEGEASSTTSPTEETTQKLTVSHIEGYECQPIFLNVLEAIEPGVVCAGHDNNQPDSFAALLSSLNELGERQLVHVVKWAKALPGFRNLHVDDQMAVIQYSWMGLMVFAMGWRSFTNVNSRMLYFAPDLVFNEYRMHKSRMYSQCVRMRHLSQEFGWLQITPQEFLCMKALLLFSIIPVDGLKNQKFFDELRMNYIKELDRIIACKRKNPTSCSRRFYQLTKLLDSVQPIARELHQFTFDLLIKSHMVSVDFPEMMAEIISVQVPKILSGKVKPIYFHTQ
The experiment in a line: IR Binding Assay: displacement of 3H-DHT in COS-1 cells transfected with pRShAR.
Details: not given
The method, then: COS-1 cells in 96-well microtiter plates containing DMEM-10% FBS were transfected using standard techniques with plasmids pRShAR (2 ng/well), pRS-β-Gal (50 ng/well) and pGEM (48 ng/well). Six hours after transfection, media was removed, the cells were washed with PBS and fresh media was added. Twenty-four hours later, the media was changed to serum free DMEM and the cells were incubated for twenty-four hours.
Three replicates were used for each sample.
After three hours at 37° C., aliquots of media from each well of both test plates and control plates were removed to estimate the amount of free ^3H-DHT. The remaining media was removed, the cells were washed three times with PBS, and cells were lysed with a Triton X-100-based buffer. The lysates were assayed for amount of bound ^3H-DHT and β-Gal activity using a scintillation counter and spectrophotometer, respectively.
Determination of Kd for ^3H-DHT. Total binding was defined as binding of ^3H-DHT in the absence of 100 molar excess of unlabeled DHT in the control plate. […] binding was defined as binding of ^3H-DHT in the presence of 100 molar excess of unlabeled DHT in the control plate. Specific binding was defined as the difference between the total binding and the nonspecific binding, normalized by the β-Gal rate. Specific binding was used in Scatchard analysis to determine the Kd for ^3H-DHT.
Test Compounds. To determine binding affinity (Ki) for test compounds, the data from each concentration of test compound was calculated as a percentage of the signal for the sample with no test compound. […] The Ki values were determined by the Cheng-Prusoff equation, where: […]
Turning to `COc1cccc2c1-c1ccc3[nH]c(=O)cc(C)c3c1C(C)O2` (racemic) [Compound 107, (±)-10-Methoxy-4,5-dimethyl-1H,5H-6-oxa-1-aza-chrysen-2-one], the Ki – broadly, a dissociation constant, usually derived from enzyme kinetics or from competition with a known ligand – is over 50 nM.

In the case of `COc1cccc2c1-c1ccc3[nH]c(=O)cc(C(F)(F)F)c3c1C(O)O2` (racemic) [Compound 114, (±)-5-Hydroxy-10-methoxy-4-trifluoromethyl-1H,5H-6-oxa-1-aza-chrysen-2-one], the Ki was over 50 nM. Take `COc1c(OC(=O)C(C)(C)C)ccc2oc(=O)c3c(ccc4[nH]c(=O)cc(C)c43)c12` [Compound 102, 2,2-Dimethylpropionic acid 10-methoxy-4-methyl-2,5-dioxo-2,5-dihydro-1H-6-oxa-1-aza-chrysen-9-yl ester]: the Ki fell in the range of 10 to 50 nM. Still for that read-out and setting: for `COc1cccc2c1-c1ccc3[nH]c(=O)cc(C(F)(F)F)c3c1CO2` [Compound 113] the value was 10 to 50 nM; for `O=c1cc(C(F)(F)F)c2c3c(ccc2[nH]1)-c1c(O)cccc1OC3` [Compound 115, 10-Hydroxy-4-trifluoromethyl-1H,5H-6-oxa-1-aza-chrysen-2-one], under 10 nM. On to `CC(C)(C)C(=O)Oc1cccc2c1-c1ccc3[nH]c(=O)cc(C(F)(F)F)c3c1CO2` [Compound 116, 2,2-Dimethyl-propionic acid 2-oxo-4-trifluoromethyl-2,5-dihydro-1H-6-oxa-1-aza-chrysen-10-yl ester], for which the Ki is under 10 nM.

`Cc1cc(=O)[nH]c2ccc3c4c(CO)cccc4oc(=O)c3c12` [Compound 124, 10-Hydroxymethyl-4-methyl-1H-6-oxa-1-aza-chrysene-2,5-dione] returned a Ki of 10 to 50 nM. Turning to `COc1cccc2c(=O)oc3c(ccc4[nH]c(=O)cc(C(F)(F)F)c43)c12` [Compound 126, 10-Methoxy-4-trifluoromethyl-1H-5-oxa-1-azachrysene-2,6-dione], the Ki was in the range of 10 to 50 nM. On to `COc1cccc2c1-c1ccc3[nH]c(=O)cc(C(F)(F)F)c3c1OC2` [Compound 127, 10-Methoxy-4-trifluoromethyl-1,6-dihydro-5-oxa-1-azachrysen-2-one], for which the Ki lay within 10 to 50 nM.

The same assay, now with this note: 1 nM 3H-DHT, transfected COS-1 cells, 3 hours at 37° C., Cheng-Prusoff; read-out: Binding to hAR (Ki value ranges).
With `COc1cccc2c1-c1ccc3[nH]c(=O)cc(C)c3c1C(O)O2` (racemic) [Compound 105, (±)-5-Hydroxy-10-methoxy-4-methyl-1H,5H-6-oxa-1-aza-chrysen-2-one], the inhibition constant (Ki) was over 50 nM. In the case of `COc1cccc2c1-c1ccc3[nH]c(=O)cc(C)c3c1C(C)(OC)O2` (racemic) [Compound 108, (±)-5,10-Dimethoxy-4,5-dimethyl-1H,5H-6-oxa-1-azachrysen-2-one], the Ki was over 50 nM. In the case of `COc1c(O)ccc2c1-c1ccc3[nH]c(=O)cc(C)c3c1C(OC)O2` (racemic) [Compound 118, (±)-9-Hydroxy-5,10-dimethoxy-4-methyl-1H,5H-6-oxa-1-aza-chrysen-2-one], the inhibitory constant (Ki) is over 50 nM. Turning to `COc1ccc2oc(=O)c3c(ccc4[nH]c(=O)cc(C)c43)c2c1` [Compound 103, 9-Methoxy-4-methyl-1H-6-oxa-1-aza-chrysene-2,5-dione], the Ki is over 50 nM. For the compound `Cc1cc(=O)[nH]c2ccc3c4c(OC(=O)C(C)(C)C)cccc4oc(=O)c3c12` [Compound 104, 2,2-Dimethylpropionic acid 4-methyl-2,5-dioxo-2,5-dihydro-1H-6-oxa-1-aza-chrysen-10-yl ester], the Ki was under 10 nM. Consider `COc1cccc2c1-c1ccc3[nH]c(=O)cc(C)c3c1CO2` [Compound 109, 10-Methoxy-4-methyl-1H,5H-6-oxa-1-azachrysen-2-one], for which the Ki is over 50 nM. Regarding `COC(=O)c1cccc2oc(=O)c3c(ccc4[nH]c(=O)cc(C)c43)c12` [Compound 111, 4-Methyl-2,5-dioxo-2,5-dihydro-1H-6-oxa-1-aza-chrysene-10-carboxylic acid methyl ester], the Ki is over 50 nM. Regarding `COc1c(O)ccc2oc(=O)c3c(ccc4[nH]c(=O)cc(C)c43)c12` [Compound 117, 9-Hydroxy-10-methoxy-4-methyl-1H-6-oxa-1-aza-chrysene-2,5-dione], the Ki is under 10 nM. Same read-out and setting: for `COc1c(O)ccc2c1-c1ccc3[nH]c(=O)cc(C)c3c1CO2` [Compound 119, 9-Hydroxy-10-methoxy-4-methyl-1H,5H-6-oxa-1-aza-chrysen-2-one] the value was under 10 nM; for `COc1c(OC(C)C)ccc2oc(=O)c3c(ccc4[nH]c(=O)cc(C)c43)c12` [Compound 120, 9-Isopropoxy-10-methoxy-4-methyl-1H-6-oxa-1-aza-chrysene-2,5-dione], 10 to 50 nM. The same measure, in the same setting: for `CCOc1ccc2oc(=O)c3c(ccc4[nH]c(=O)cc(C)c43)c2c1OC` [Compound 121, 9-Ethoxy-10-methoxy-4-methyl-1H-6-oxa-1-aza-chrysene-2,5-dione] the value was over 50 nM; for `CCOc1ccc2oc(=O)c3c(ccc4c3c(C)cc(=O)n4CC)c2c1OC` [Compound 122, 9-Ethoxy-1-ethyl-10-methoxy-4-methyl-1H-6-oxa-1-aza-chrysene-2,5-dione], over 50 nM.

Regarding `COc1cccc2c1-c1ccc3[nH]c(=O)cc(C)c3c1C(=O)OC2` [Compound 123, 4-Methoxy-10-methyl-7,13-dihydro-12-oxa-7-aza-benzo[3,4]cyclohepta[1,2-α]-naphthalene-8,11-dione], the Ki is over 50 nM. Turning to `Cc1c([N+](=O)[O-])ccc2c1c(=O)oc1cccc(O)c12` [Compound 129, 1-Hydroxy-7-methyl-8-nitrobenzo[c]coumarin], the Ki is under 10 nM.

Turning to `COc1cccc2oc(=O)c3c(C)c([N+](=O)[O-])ccc3c12` [Compound 130, 1-Methoxy-7-methyl-8-nitrobenzo[c]coumarin], the Ki is over 50 nM.
